In PubChem BioAssay (NCI):
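Here, GI50 denotes the concentration required for 50% inhibition of growth. At the TGI there is no net growth.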

How the values were obtained:
Assay in all cases: DTP human tumour cell line panel, 384-well format
[1] = tested on: NCI-H226 lung
[2] = tested on: DU-145 prostate
[3] = tested on: MDA-MB-231 breast
[4] = tested on: HCC-2998 colon
[5] = tested on: OVCAR-5 ovarian
[6] = tested on: SR leukemia
[7] = tested on: NCI-H322M lung
[8] = tested on: SW-620 colon
[9] = tested on: NCI/ADR-RES ovarian
[10] = tested on: OVCAR-3 ovarian
[11] = tested on: UACC-257 melanoma
[12] = tested on: ACHN renal
[13] = tested on: CCRF-CEM leukemia
[14] = tested on: LOX IMVI melanoma
[15] = tested on: MOLT-4 leukemia
[16] = tested on: HL-60(TB) leukemia
[17] = tested on: A498 renal
[18] = tested on: MDA-MB-435 melanoma
[19] = tested on: OVCAR-8 ovarian
[20] = tested on: TK-10 renal
[21] = tested on: SF-295 CNS
[22] = tested on: MCF7 breast
[23] = tested on: SNB-19 CNS
[24] = tested on: SK-MEL-5 melanoma
[25] = tested on: A549 NSCLC
[26] = tested on: UACC-62 melanoma
[27] = tested on: OVCAR-4 ovarian
[28] = tested on: PC-3 prostate
[29] = tested on: HOP-92 NSCLC
[30] = tested on: CAKI-1 renal
[31] = tested on: SF-268 CNS
[32] = tested on: NCI-H23 lung
[33] = tested on: SNB-75 CNS
[34] = tested on: EKVX NSCLC
[35] = tested on: U251 glioblastoma
[36] = tested on: T-47D breast
[37] = tested on: 786-0 renal
[38] = tested on: NCI-H460 NSCLC
[39] = tested on: RPMI-8226 leukemia
[40] = tested on: UO-31 renal
[41] = tested on: BT-549 breast
[42] = tested on: SK-MEL-28 melanoma
[43] = tested on: HCT-116 colon
[44] = tested on: SF-539 CNS
[45] = tested on: SN12C renal
[46] = tested on: SK-OV-3 ovarian
[47] = tested on: SK-MEL-2 melanoma
[48] = tested on: HS 578T breast
[49] = tested on: KM12 colon
[50] = tested on: K-562 leukemia
[51] = tested on: HCT-15 colon
[52] = tested on: MDA-MB-468 breast
[53] = tested on: HOP-62 NSCLC
[54] = tested on: HT29 colon
[55] = tested on: COLO 205 colon
[56] = tested on: MALME-3M melanoma
[57] = tested on: NCI-H522 lung
[58] = tested on: IGROV1 ovarian
[59] = tested on: M14 melanoma

CO[C@H]1C[C@@H]2CC[C@@H](C)[C@@](O)(O2)C(=O)C(=O)N2CCCC[C@H]2C(=O)O[C@H]([C@H](C)C[C@@H]2CC[C@@H](OCCO)[C@H](OC)C2)CC(=O)[C@H](C)C=C(C)[C@@H](O)[C@@H](OC)C(=O)[C@H](C)C[C@H](C)/C=C/C=C/C=C1C
GI50 [1]: 9.49 µM | TGI [1]: 21.8 µM | GI50 [2]: 7.21 µM | TGI [2]: 23.4 µM | GI50 [3]: 12.5 µM | TGI [3]: 25.1 µM | GI50 [4]: 7.55 µM | TGI [4]: 22.9 µM | GI50 [5]: 15.2 µM | TGI [5]: 29.1 µM | GI50 [6]: < 0.01 µM | TGI [6]: 1.3 µM | GI50 [7]: 6.97 µM | TGI [7]: 22.1 µM | GI50 [8]: 11.8 µM | TGI [8]: 16.4 µM | GI50 [9]: 13.5 µM | TGI [9]: 28.7 µM | GI50 [10]: 4.68 µM | TGI [10]: 21.8 µM | GI50 [11]: 16.5 µM | TGI [11]: 30.1 µM | GI50 [12]: 2.93 µM | TGI [12]: 22.2 µM | GI50 [13]: < 0.01 µM | TGI [13]: 2.84 µM | GI50 [14]: 6.02 µM | TGI [14]: 20.9 µM | GI50 [15]: < 0.01 µM | TGI [15]: 2.24 µM | GI50 [16]: 2.16 µM | TGI [16]: 6.09 µM | GI50 [17]: < 0.0276 µM | TGI [17]: 17.4 µM | GI50 [18]: 16.2 µM | TGI [18]: 29.9 µM | GI50 [19]: 10.9 µM | TGI [19]: 22.8 µM | GI50 [20]: 13.6 µM | TGI [20]: 31 µM | TGI [21]: 16 µM | GI50 [22]: < 0.0154 µM | TGI [22]: 12.9 µM | GI50 [23]: 12.8 µM | TGI [23]: 25.5 µM | GI50 [24]: 0.414 µM | TGI [24]: 3.78 µM | TGI [25]: 20 µM | GI50 [26]: 6.61 µM | TGI [26]: 14.9 µM | GI50 [27]: 10.8 µM | TGI [27]: 24.1 µM | GI50 [28]: 0.549 µM | TGI [28]: 17.7 µM | GI50 [29]: 11.2 µM | TGI [29]: 23.4 µM | GI50 [30]: 5.67 µM | TGI [30]: 21.4 µM | GI50 [31]: 12.6 µM | TGI [31]: 25.3 µM | GI50 [32]: 11.6 µM | TGI [32]: 23.9 µM | GI50 [33]: 0.124 µM | TGI [33]: 4.55 µM | GI50 [34]: 1.79 µM | TGI [34]: 20.4 µM | GI50 [35]: 5.77 µM | TGI [35]: 21.1 µM | TGI [36]: 16.2 µM | GI50 [37]: 0.777 µM | TGI [37]: 21.1 µM | GI50 [38]: 0.377 µM | TGI [38]: 18.7 µM | GI50 [39]: < 0.01 µM | TGI [39]: 1.87 µM | GI50 [40]: < 0.01 µM | TGI [41]: 15.6 µM | GI50 [42]: 11.9 µM | TGI [42]: 16.5 µM | GI50 [43]: 8.33 µM | TGI [43]: 21.9 µM | GI50 [44]: 3.06 µM | TGI [44]: 19.7 µM | GI50 [45]: 11.7 µM | TGI [45]: 24.2 µM | GI50 [46]: 12.1 µM | TGI [46]: 25.4 µM | GI50 [47]: 14.2 µM | TGI [47]: 27.2 µM | TGI [48]: 7.24 µM | GI50 [49]: 11.2 µM | TGI [49]: 23.3 µM | GI50 [50]: 2.04 µM | TGI [50]: 15.3 µM | GI50 [51]: 1.43 µM | TGI [51]: 18.7 µM | GI50 [52]: < 0.01 µM | TGI [52]: 8.91 µM | GI50 [53]: 0.548 µM | TGI [53]: 20.7 µM | GI50 [54]: 11.5 µM | TGI [54]: 23.7 µM | GI50 [55]: 14.6 µM | TGI [55]: 27.7 µM | GI50 [56]: < 0.01 µM | TGI [56]: 14.6 µM | GI50 [57]: 9.37 µM | TGI [57]: 22 µM | GI50 [58]: < 0.01 µM | TGI [58]: 11.2 µM | GI50 [59]: 12.1 µM | TGI [59]: 24.5 µM
